The target of the test is T1, human M1 receptor (Homo sapiens, UniProt P11229).
T1 sequence (P11229 1-460): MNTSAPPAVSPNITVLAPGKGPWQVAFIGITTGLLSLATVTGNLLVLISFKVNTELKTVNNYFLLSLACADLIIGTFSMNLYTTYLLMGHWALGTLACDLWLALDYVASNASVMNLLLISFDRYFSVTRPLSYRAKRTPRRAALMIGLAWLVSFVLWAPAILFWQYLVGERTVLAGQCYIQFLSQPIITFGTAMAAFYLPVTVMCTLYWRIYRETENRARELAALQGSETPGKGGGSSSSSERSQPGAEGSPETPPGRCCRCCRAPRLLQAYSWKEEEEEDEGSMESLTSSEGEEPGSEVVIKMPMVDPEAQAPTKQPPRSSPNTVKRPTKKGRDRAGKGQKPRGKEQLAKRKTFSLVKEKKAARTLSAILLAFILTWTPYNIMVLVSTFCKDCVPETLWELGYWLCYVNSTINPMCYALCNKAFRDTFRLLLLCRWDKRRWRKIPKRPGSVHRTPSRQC
The test can be described thus: In vitro functional assay of muscarinic acetylcholine receptor activity (aequorin calcium flux, reversal of EC80 acetylcholine response). The class given is cell-based. As to conditions: acetylcholine at EC80, calcium flux (luminescence). An outline of the steps: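 CHO-K1 cells expressing human M1 and aequorin, loaded with 5 μM coelenterazine for 4 h, preincubated with compound 30 min at room temperature, then challenged with EC80 acetylcholine.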

The mark [1] stands for this setting: CHO-K1 cells stably expressing human M1 receptor with aequorin, read-out: M1 IC50.

Counter-ions that a name gives are not always drawn. Like-named read-outs stand apart in the source and are kept apart here.

Consider `N#Cc1ccc(N2C[C@H]3C[C@@H]2CN3C(=O)COC2(c3ccc(F)c(F)c3)CC2)nc1` [Example 285, 6-((1R,4R)-5-(2-(1-(3,4-difluorophenyl)cyclopropoxy)acetyl)-2,5-diazabicyclo[2.2.1]heptan-2-yl)nicotinonitrile], for which the IC50 under setting [1] was over 1 µM.

On to `N#Cc1ccc(N2C[C@H]3CC[C@@H]2CN3C(=O)COC2(c3ccc(F)c(F)c3)CC2)nc1` [Example 286, 6-((1R,4R)-5-(2-(1-(3,4-difluorophenyl)cyclopropoxy)acetyl)-2,5-diazabicyclo[2.2.2]octan-2-yl)nicotinonitrile], for which, under setting [1], the IC50 is over 1 µM.

Take `N#Cc1ccc(N2C[C@@H]3C[C@H]2CN3C(=O)COC2(c3ccc(F)c(F)c3)CC2)nc1` [Example 287, 6-((1S,4S)-5-(2-(1-(3,4-difluorophenyl)cyclopropoxy)acetyl)-2,5-diazabicyclo[2.2.1]heptan-2-yl)nicotinonitrile]: under setting [1], the IC50 was in the range of 1 to 10 µM.

`N#Cc1ccc(N2C3CCC2CN(C(=O)CCNC2(c4ccc(F)c(C#N)c4)CC2)C3)nc1` [Example 288, 6-(3-(3-((1-(3-cyano-4-fluorophenyl)cyclopropyl)amino)propanoyl)-3,8-diazabicyclo[3.2.1]octan-8-yl)nicotinonitrile formic acid Salt]: under “M1 IC50, CHO-K1 cells stably expressing human M1 receptor with aequorin”, the IC50 fell in the range of 0.01 to 0.1 µM.

`N#Cc1ccc(N2C3CCC2CN(C(=O)CCNC2(c4cc(Cl)cc(C#N)c4)CC2)C3)nc1` [Example 289, 6-(3-(3-((1-(3-chloro-5-cyanophenyl)cyclopropyl)amino)propanoyl)-3,8-diazabicyclo[3.2.1]octan-8-yl)nicotinonitrile]: the half-maximal inhibitory concentration (IC50) under setting [1] fell in the range of 0.1 to 1 µM.

With `N#Cc1ccc(N2C3CCC2CN(C(=O)COC2(c4cccc(C#N)c4F)CC2)C3)nc1` [Example 290, 6-(3-(2-(1-(3-cyano-2-fluorophenyl)cyclopropoxy)acetyl)-3,8-diazabicyclo[3.2.1]octan-8-yl)nicotinonitrile], the IC50 under setting [1] fell in the range of 1 to 10 µM.

For the molecule `N#Cc1ccc(N2C3CCC2CN(C(=O)COC2(c4ccc(F)c(C#N)c4)CC2)C3)nc1` [Example 291, 6-(3-(2-(1-(3-cyano-4-fluorophenyl)cyclopropoxy)acetyl)-3,8-diazabicyclo[3.2.1]octan-8-yl)nicotinonitrile], the IC50 under setting [1] is 0.1 to 1 µM.

In the case of `N#Cc1ccc(N2C3CCC2CN(C(=O)COC2(c4cc(F)cc(C#N)c4)CC2)C3)nc1` [Example 292, 6-(3-(2-(1-(3-cyano-5-fluorophenyl)cyclopropoxy)acetyl)-3,8-diazabicyclo[3.2.1]octan-8-yl)nicotinonitrile], the IC50 under setting [1] lay in the range of 0.1 to 1 µM.

Regarding `COc1ccc(C#N)c(C2(OCC(=O)N3CC4CCC(C3)N4c3ccc(C#N)cn3)CC2)c1` [Example 293, 6-(3-(2-(1-(2-cyano-5-methoxyphenyl)cyclopropoxy)acetyl)-3,8-diazabicyclo[3.2.1]octan-8-yl)nicotinonitrile], the 50% inhibitory concentration (IC50) under setting [1] was under 0.01 µM.

Turning to `N#Cc1ccc(N2C3CCC2CN(C(=O)COC2(c4ccccc4C#N)CC2)C3)nc1` [Example 294, 6-(3-(2-(1-(2-cyanophenyl)cyclopropoxy)acetyl)-3,8-diazabicyclo[3.2.1]octan-8-yl)nicotinonitrile], the half-inhibitory concentration (IC50) under setting [1] fell in the range of 0.1 to 1 µM.

Regarding `N#Cc1ccc(N2C3CCC2CN(C(=O)COC2(c4cccc(C#N)c4)CC2)C3)nc1` [Example 295, 6-(3-(2-(1-(3-cyanophenyl)cyclopropoxy)acetyl)-3,8-diazabicyclo[3.2.1]octan-8-yl)nicotinonitrile], the IC50 under setting [1] was in the range of 0.1 to 1 µM.

As to `N#Cc1ccc(C2(OCC(=O)N3CC4CCC(C3)N4c3ccc(C#N)cn3)CC2)cc1` [Example 296, 6-(3-(2-(1-(4-cyanophenyl)cyclopropoxy)acetyl)-3,8-diazabicyclo[3.2.1]octan-8-yl)nicotinonitrile], under setting [1], the IC50 lay within 1 to 10 µM.

Regarding `N#Cc1ccc(N2C3CCC2CN(C(=O)COC2(c4ccc(F)cc4C#N)CC2)C3)nc1` [Example 297, 6-(3-(2-(1-(2-cyano-4-fluorophenyl)cyclopropoxy)acetyl)-3,8-diazabicyclo[3.2.1]octan-8-yl)nicotinonitrile], the 50% inhibitory concentration (IC50) under setting [1] was 0.01 to 0.1 µM.

`N#Cc1ccc(N2C3CCC2CN(C(=O)COC2(c4cc(F)ccc4C#N)CC2)C3)nc1` [Example 298, 6-(3-(2-(1-(2-cyano-5-fluorophenyl)cyclopropoxy)acetyl)-3,8-diazabicyclo[3.2.1]octan-8-yl)nicotinonitrile]: the IC50 under setting [1] is 0.1 to 1 µM.

`Cn1c(C2(OCC(=O)N3CC4CCC(C3)N4c3ccc(C#N)cn3)CCC2)cccc1=O` [Example 299, 6-(3-(2-(1-(1-methyl-6-oxo-1,6-dihydropyridin-2-yl)cyclobutoxy)acetyl)-3,8-diazabicyclo[3.2.1]octan-8-yl)nicotinonitrile]: the IC50 under setting [1] is 0.01 to 0.1 µM.

As to `Cn1ccc(C2(OCC(=O)N3CC4CCC(C3)N4c3ccc(C#N)cn3)CCC2)cc1=O` [Example 300, 6-(3-(2-(1-(1-methyl-2-oxo-1,2-dihydropyridm-4-yl)cyclobutoxy)acetyl)-3,8-diazabicyclo[3.2.1]octan-8-yl)nicotinonitrile], the IC50 under setting [1] lay in the range of 0.01 to 0.1 µM.

On to `Cn1ccc(=O)c(C2(OCC(=O)N3CC4CCC(C3)N4c3ccc(C#N)cn3)CC2)c1` [Example 302, 6-(3-(2-(1-(1-methyl-4-oxo-1,4-dihydropyridin-3-yl)cyclopropoxy)acetyl)-3,8-diazabicyclo[3.2.1]octan-8-yl)nicotinonitrile], for which the IC50 under setting [1] was over 1 µM.

Take `N#Cc1ccc(N2C3CCC2CN(C(=O)CCOC2(c4ccc(F)c(F)c4)CCC2)C3)nc1` [Example 303, 6-(3-(3-(1-(3,4-difluorophenyl)cyclobutoxy)propanoyl)-3,8-diazabicyclo[3.2.1]octan-8-yl)nicotinonitrile]: the IC50 under setting [1] is under 0.01 µM.

In the case of `C[C@H](OCCC(=O)N1CC2CCC(C1)N2c1ccc(C#N)cn1)c1ccccc1` [Example 305, 6-(3-(3-((S)-1-phenylethoxy)propanoyl)-3,8-diazabicyclo[3.2.1]octan-8-yl)nicotinonitrile], the IC50 under setting [1] is 0.1 to 1 µM.

Consider `C[C@@H](OCCC(=O)N1CC2CCC(C1)N2c1ccc(C#N)cn1)c1ccc(F)c(F)c1` [Example 306, 6-(3-(3-((R)-1-(3,4-difluorophenyl)ethoxy)propanoyl)-3,8-diazabicyclo[3.2.1]octan-8-yl)nicotinonitrile], for which the IC50 under setting [1] was in the range of 0.01 to 0.1 µM.

Regarding `N#Cc1ccc(N2C3CCC2CN(C(=O)CCOCC2(c4ccccc4)CC2)C3)nc1` [Example 307, 6-(3-(3-((1-phenylcyclopropyl)methoxy)propanoyl)-3,8-diazabicyclo[3.2.1]octan-8-yl)nicotinonitrile], the IC50 under setting [1] was in the range of 0.1 to 1 µM.

For the molecule `N#Cc1ccc(N2C3CCC2CN(C(=O)CCOC2(c4ccc(F)cc4)CCC2)C3)nc1` [Example 310, 6-(3-(3-(1-(4-fluorophenyl)cyclobutoxy)propanoyl)-3,8-diazabicyclo[3.2.1]octan-8-yl)nicotinonitrile], the half-maximal inhibitory concentration (IC50) under setting [1] was under 0.01 µM.

`N#Cc1ccc(N2C3CCC2CN(C(=O)COC2(c4cncc(O)c4)CCC2)C3)nc1` [Example 313, 6-(3-(2-(1-(5-hydroxypyridin-3-yl)cyclobutoxy)acetyl)-3,8-diazabicyclo[3.2.1]octan-8-yl)nicotinonitrile]: the IC50 under setting [1] is under 0.01 µM.

Regarding `N#Cc1ccc(N2C3CCC2CN(C(=O)COC2(c4cncc(OCC(F)(F)F)c4)CCC2)C3)nc1` [Example 314, 6-(3-(2-(1-(5-(2,2,2-trifluoroethoxy)pyridin-3-yl)cyclobutoxy)acetyl)-3,8-diazabicyclo[3.2.1]octan-8-yl)nicotinonitrile], under setting [1], the IC50 was 0.01 to 0.1 µM.

`N#Cc1ccc(N2C3CCC2CN(C(=O)COC2(c4c(F)cncc4F)CCC2)C3)nc1` [Example 316, 6-(3-(2-(1-(3,5-difluoropyridin-4-yl)cyclobutoxy)acetyl)-3,8-diazabicyclo[3.2.1]octan-8-yl)nicotinonitrile]: the IC50 under setting [1] is under 0.01 µM.

(Values after patent US12565501B2, “Muscarinic acetylcholine M1 receptor antagonists” (Contineum Therapeutics, Inc., priority 2019, dated 2026).)
